In patent US7262212B2, “2,3-dihydro-6-nitroimidazo[2,1-b]oxazoles” (Otsuka Pharmaceutical Co., Ltd., priority 2002, dated 2007):

| melting point | Compound |
| --- | --- |
| 174 to 175 °C | CN(C[C@@]1(C)Cn2cc([N+](=O)[O-])nc2O1)c1ccc(Cl)cc1 |
| 165 to 167 °C | CC1(CN2CCC(C(=O)c3ccc(Cl)cc3)CC2)Cn2cc([N+](=O)[O-])nc2O1 (stereo not drawn) |
| 88.8 to 91.9 °C | C[C@]1(CN2CCC(OCCCc3ccc(Cl)cc3)CC2)Cn2cc([N+](=O)[O-])nc2O1 |
| 158 to 160.6 °C | CC1(CN2CCN(C(=O)COc3ccccc3)CC2)Cn2cc([N+](=O)[O-])nc2O1 (stereo not drawn) |
| 150 to 151 °C | C[C@]1(CN2CCN(C(=O)OCC=Cc3cccc(Cl)c3)CC2)Cn2cc([N+](=O)[O-])nc2O1.O=C(O)/C=C\C(=O)O |
| 184 to 185 °C | CC(C)(C)OC(=O)N1CCN(C2CCN(C[C@@]3(C)Cn4cc([N+](=O)[O-])nc4O3)CC2)CC1 |
| 166 °C (dec.) | CC1(CN2CCN(C(=O)OCC#Cc3ccc(C(F)(F)F)cc3)CC2)Cn2cc([N+](=O)[O-])nc2O1.O=C(O)/C=C\C(=O)O (stereo not drawn) |
| 200.4 to 202.1 °C | CC1(CNC(=O)OCc2ccc(F)cc2)Cn2cc([N+](=O)[O-])nc2O1 (stereo not drawn) |
| 262.5 to 265 °C | C[C@]1(COc2ccc(N3CCN(c4ccc(OC(F)(F)F)cc4)CC3)cc2)Cn2cc([N+](=O)[O-])nc2O1 |
| 181 to 182 °C | CC1(CCN2CCN(Cc3ccc(-c4ccccc4)cc3)CC2)Cn2cc([N+](=O)[O-])nc2O1 (stereo not drawn) |
| 246.2 to 246.8 °C | CC1(Cn2c(=O)oc3ccc(F)cc32)Cn2cc([N+](=O)[O-])nc2O1 (stereo not drawn) |
| 165 to 166 °C | C[C@]1(COC(=O)N2CCC(Oc3ccc(C(F)(F)F)cc3)CC2)Cn2cc([N+](=O)[O-])nc2O1 |
| 199 to 202 °C (dec.) | CC1(CCN2CCN(c3ccccc3)C(=O)C2)Cn2cc([N+](=O)[O-])nc2O1 (stereo not drawn) |
| 216 to 218 °C | C[C@]1(CN2CCN(S(=O)(=O)c3ccc(Cl)cc3)CC2)Cn2cc([N+](=O)[O-])nc2O1 |
| 148 to 149 °C | C[C@]1(CN2CCC(N3CCN(Cc4ccc(Cl)cc4)CC3)CC2)Cn2cc([N+](=O)[O-])nc2O1 |
| 157 to 160 °C | O=[N+]([O-])c1cn2c(n1)O[C@@H](COc1ccc(N3CCC(Oc4ccc(OC(F)(F)F)cc4)CC3)cc1)C2 |
| 223 to 225 °C | O=C(NCc1ccc(OC(F)(F)F)cc1)N1CCC2(CC1)Cn1cc([N+](=O)[O-])nc1O2 |
| 183 to 189 °C (dec.) | CC(C)(C)OC(=O)N1CC=C(c2ccc(OC[C@@]3(C)Cn4cc([N+](=O)[O-])nc4O3)cc2)CC1 |
| 206 to 209 °C (dec.) | O=[N+]([O-])c1cn2c(n1)OC(CN1CCN(c3nc4ccccc4o3)CC1)C2 (stereo not drawn) |
| 188 to 191 °C | CC1(Cn2nc(-c3ccc(F)cc3)oc2=O)Cn2cc([N+](=O)[O-])nc2O1 (stereo not drawn) |
| 198.8 to 201.1 °C | CN(C(=O)OC(C)(C)C)C1CCN(CC2(C)Cn3cc([N+](=O)[O-])nc3O2)CC1 (stereo not drawn) |
| 150.3 to 151.6 °C | CN(CC1(C)Cn2cc([N+](=O)[O-])nc2O1)C(=O)OCc1ccccc1 (stereo not drawn) |
| 84.2 to 86.8 °C | CNC(C1CCN(C(=O)OCc2ccc(OC(F)(F)F)cc2)CC1)[C@]1(C)Cn2cc([N+](=O)[O-])nc2O1 (stereo partly drawn) |
| 147.2 to 149.2 °C | CN(C(=O)OCc1ccc(Cl)cc1)C1CCN(CC2(C)Cn3cc([N+](=O)[O-])nc3O2)CC1 (stereo not drawn) |
| 166 to 168 °C | CC1(CO)Cn2cc([N+](=O)[O-])nc2O1 (stereo not drawn) |
| 172 to 174 °C | C[C@]1(COC(=O)N2CCCc3cc(Cl)ccc32)Cn2cc([N+](=O)[O-])nc2O1 |

| melting point | Compound |
| --- | --- |
| 116.2 to 116.6 °C | CNC(C1CCN(C(=O)OCc2ccc(Cl)cc2)CC1)[C@]1(C)Cn2cc([N+](=O)[O-])nc2O1 (stereo partly drawn) |
| 131.5 to 133.6 °C | CNC(C1CCN(c2ccc(C(F)(F)F)cc2)CC1)[C@]1(C)Cn2cc([N+](=O)[O-])nc2O1 (stereo partly drawn) |
| 189 to 190 °C | O=C(OCc1ccc(C(F)(F)F)cc1)N1CCC2(CC1)Cn1cc([N+](=O)[O-])nc1O2 |
| 212 to 214.5 °C | CC(C)(C)OC(=O)N1CCN(c2ccc(OCC3(C)Cn4cc([N+](=O)[O-])nc4O3)cc2)CC1 (stereo not drawn) |
| 158.3 to 159.8 °C | CC(C)OC(=O)N1CCN(CC2(C)Cn3cc([N+](=O)[O-])nc3O2)CC1 (stereo not drawn) |
| 138 to 139.4 °C | CCCCCCCCOC(=O)N1CCN(CC2(C)Cn3cc([N+](=O)[O-])nc3O2)CC1 (stereo not drawn) |
| 179.2 to 182.1 °C | CNC(C1CCN(c2ccc(Cl)cc2)CC1)[C@]1(C)Cn2cc([N+](=O)[O-])nc2O1 (stereo partly drawn) |
| 149.5 to 151.8 °C | CN(CCN1CCN(C(=O)OC(C)(C)C)CC1)C[C@@]1(C)Cn2cc([N+](=O)[O-])nc2O1 |
| 147 to 149 °C (dec.) | CC1(CCCN2CCN(C(C)(C)C)C(=O)C2)Cn2cc([N+](=O)[O-])nc2O1 (stereo not drawn) |
| 260 to 263 °C (dec.) | O=C(CN1CCN(c2nc3ccccc3o2)CC1)N1CCC2(CC1)Cn1cc([N+](=O)[O-])nc1O2 |
| 133.2 to 134.4 °C | CN(c1ccc(OC(F)(F)F)cc1)C1CCN(C[C@@]2(C)Cn3cc([N+](=O)[O-])nc3O2)CC1 |
| 215 to 217 °C | O=C(Nc1ccc(C(F)(F)F)cc1)N1CCC2(CC1)Cn1cc([N+](=O)[O-])nc1O2 |
| 163 to 166 °C | CC1(CSc2nc3ccccc3o2)Cn2cc([N+](=O)[O-])nc2O1 (stereo not drawn) |
| 117 to 119 °C | CC1(CN2CCC(Oc3ccc(OC(F)(F)F)cc3)CC2)Cn2cc([N+](=O)[O-])nc2O1 (stereo not drawn) |
| 105 to 106 °C | C[C@]1(CN2CCN(C3CCN(C(=O)OCc4ccc(OC(F)(F)F)cc4)CC3)CC2)Cn2cc([N+](=O)[O-])nc2O1 |
| 148 to 150.5 °C | CN(CCN1CCN(c2ccc(C(F)(F)F)cc2)CC1)C[C@@]1(C)Cn2cc([N+](=O)[O-])nc2O1 |
| 151 to 153 °C | CC1(Cn2nc(Cc3ccc(Cl)cc3)oc2=O)Cn2cc([N+](=O)[O-])nc2O1 (stereo not drawn) |
| 182.3 to 184.4 °C | CC1(CNC(=O)OCc2ccc(OC(F)(F)F)cc2)Cn2cc([N+](=O)[O-])nc2O1 (stereo not drawn) |
| 168 to 169 °C | CN(Cc1ccc(N(C)C)cc1)C[C@@]1(C)Cn2cc([N+](=O)[O-])nc2O1 |
| 178.5 to 179.5 °C | O=[N+]([O-])c1cn2c(n1)O[C@@H](CN1CCN(c3ccc(F)cc3)CC1)C2 |
| 168.1 to 169.3 °C | CCCCCCn1c(=O)n(CC2(C)Cn3cc([N+](=O)[O-])nc3O2)c2cc(Cl)ccc21 (stereo not drawn) |
| 242 to 245 °C | O=[N+]([O-])c1cn2c(n1)OC1(CCN(c3ccc(Cl)cc3)CC1)C2 |
| 173.2 to 177.3 °C | O=[N+]([O-])c1cn2c(n1)OC(COc1ccc(N3CCC(Oc4ccc(OC(F)(F)F)cc4)CC3)cc1)C2 (stereo not drawn) |
| 140 to 141 °C | C[C@]1(CN2CCN(C3CCN(Cc4ccc(OC(F)(F)F)cc4)CC3)CC2)Cn2cc([N+](=O)[O-])nc2O1 |
| 207.8 to 209.1 °C | CC(C)(C)OC(=O)N1CCC(c2ccc(OCC3(C)Cn4cc([N+](=O)[O-])nc4O3)cc2)CC1 (stereo not drawn) |
| 140.6 to 142.8 °C | C[C@]1(CN2CCC(OCC=Cc3ccc(Cl)cc3)CC2)Cn2cc([N+](=O)[O-])nc2O1 |

| melting point | Compound |
| --- | --- |
| 179 to 181 °C | CC1(COC(=O)Nc2ccc(Cl)cc2)Cn2cc([N+](=O)[O-])nc2O1 (stereo not drawn) |
| 130.5 to 132.1 °C | CC1(CN2CCN(C(=O)OCc3ccccc3)CC2)Cn2cc([N+](=O)[O-])nc2O1 (stereo not drawn) |
| 200 to 203 °C | CC1(COc2nc3ccccc3o2)Cn2cc([N+](=O)[O-])nc2O1 (stereo not drawn) |
| 175.2 to 175.9 °C | CC1(CN2CCN(C(=O)Cc3ccccc3)CC2)Cn2cc([N+](=O)[O-])nc2O1 (stereo not drawn) |
| 157 to 158 °C | C[C@]1(CN2CCN(C3CCN(CC=Cc4ccc(OC(F)(F)F)cc4)CC3)CC2)Cn2cc([N+](=O)[O-])nc2O1 |
| 115 to 117 °C | CC1(CN2CCCN(C(=O)OCc3ccccc3)CC2)Cn2cc([N+](=O)[O-])nc2O1.Cl (stereo not drawn) |
| 175.8 to 176.6 °C | O=[N+]([O-])c1cn2c(n1)O[C@@H](CN1CCN(c3ccc(C(F)(F)F)cc3)CC1)C2 |
| 142 to 143 °C | C[C@]1(CN2CCC(N3CCN(Cc4ccc(OC(F)(F)F)cc4)CC3)CC2)Cn2cc([N+](=O)[O-])nc2O1 |
| 226 to 230 °C (dec.) | O=C(N1CCN(Cc2ccc(C(F)(F)F)cc2)CC1)N1CCC2(CC1)Cn1cc([N+](=O)[O-])nc1O2 |
| 207 to 208 °C | O=[N+]([O-])c1cn2c(n1)O[C@@H](CN1CCN(Cc3ccc(-c4ccccc4)cc3)CC1)C2 |
| 80.7 to 84.2 °C | C[C@]1(CN2CCC(NCCc3ccc(C(F)(F)F)cc3)CC2)Cn2cc([N+](=O)[O-])nc2O1 |
| 64 to 66 °C | CC1(Cn2nc(COc3ccc(Cl)cc3)oc2=O)Cn2cc([N+](=O)[O-])nc2O1 (stereo not drawn) |
| 117 to 121 °C | C[S+]([O-])c1ccc(COC(=O)N2CCN(CC3(C)Cn4cc([N+](=O)[O-])nc4O3)CC2)cc1 (stereo not drawn) |
| 134.4 to 136.9 °C | C[C@]1(CN2CCC(NC(=O)OC3CCN(c4ccc(C(F)(F)F)cc4)CC3)CC2)Cn2cc([N+](=O)[O-])nc2O1 |
| 221 to 221.8 °C | CC1(CNC(=O)OCc2ccc(Cl)cc2)Cn2cc([N+](=O)[O-])nc2O1 (stereo not drawn) |
| 261.9 to 265.4 °C (dec.) | Cn1c(=O)n(CC2(C)Cn3cc([N+](=O)[O-])nc3O2)c2cc(Cl)ccc21 (stereo not drawn) |
| 179.1 to 181.9 °C | C[C@]1(CN2CCN(C(=O)N3CCC(c4ccc(C(F)(F)F)cc4)CC3)CC2)Cn2cc([N+](=O)[O-])nc2O1 |
| 189 to 191 °C | C[C@]1(COC(=O)N2CCc3cc(Cl)ccc32)Cn2cc([N+](=O)[O-])nc2O1 |
| 176 to 178 °C | C[C@]1(COC(=O)N2CCN(N=Cc3ccc(C(F)(F)F)cc3)CC2)Cn2cc([N+](=O)[O-])nc2O1 |
| 116 to 118 °C | CC1(CN2CCN(C(=O)c3ccc(-c4ccccc4)cc3)CC2)Cn2cc([N+](=O)[O-])nc2O1 (stereo not drawn) |
| 172 to 175 °C | C[C@]1(COc2ccc(-n3ccnc3)cc2)Cn2cc([N+](=O)[O-])nc2O1 |
| 202 to 206 °C | CC1(CN2C(=O)C(F)(F)c3ccccc32)Cn2cc([N+](=O)[O-])nc2O1 (stereo not drawn) |
| 182.6 to 182.9 °C | O=C(NCC1Cn2cc([N+](=O)[O-])nc2O1)OCc1ccc(Cl)cc1 (stereo not drawn) |
| 249.2 to 250.1 °C | O=[N+]([O-])c1cn2c(n1)OC1(CCN(c3ccc(C(F)(F)F)cc3)CC1)C2 |
| 230 to 231 °C | CC1(Cn2nc(-c3ccc(C(F)(F)F)cc3)oc2=O)Cn2cc([N+](=O)[O-])nc2O1 (stereo not drawn) |
| 174.3 to 174.8 °C | C[C@]1(COc2ccc(C3=CCN(C(=O)OCc4ccc(OC(F)(F)F)cc4)CC3)cc2)Cn2cc([N+](=O)[O-])nc2O1 |
